Results taken from ChEMBL document CHEMBL1201862, “PubChem BioAssay data set” (2004).
The source made the active and inactive calls.

Assays:
Mu-type opioid receptor = Mu-type opioid receptor (Homo sapiens, UniProt P35372); format: functional, cell-based;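 also: U2OS cells with beta-arrestin recruitment to OPRM1 by beta-gal complementation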
[1] = biological target: 5-hydroxytryptamine receptor 2A (Mus musculus, UniProt P35363); format: functional, cell-based;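 also: CHO-K1 cells with tagged receptor and beta-arrestin; agonist potency measured as compound-induced activation of the receptor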
INS1 = assay: beta cell apoptosis inhibitors, cytokine rescue, dose response, luminescence, retest (AID 449756); format: functional, cell-based; conditions: Rattus norvegicus;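 also: cell death triggered by IL-1 beta plus TNF-alpha plus IFN-gamma mixture; protective hits raise ATP signal compared with cytokine alone wells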
[2] = HEK293T cell cytotoxicity, dose response, cytotoxicity control for HIV Vif inhibitor project, cherry-picks (AID 652208); format: functional, cell-based
[3] = HEK293T cytotoxicity, dose response, cytotoxicity control for miR-122 modulator project, cell-based, activator set, cherry-pick (AID 720690); format: functional;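 also: HEK293T human cells scored for general mammalian cytotoxicity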
[4] = miR-122 activators in hepatoma reporter cells, dose response, cell-based, Huh7 psiCHECK-miR122, Renilla luciferase, cherry-picked (AID 651956); format: functional;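 also: huh7 hepatoma cells stably carrying a psiCHECK-2 miR-122 sensor plasmid; renilla luciferase signal reporting endogenous miR-122 activity after 48 h compound exposure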
[5] = Luminescence Cell-Based Dose Retest to Confirm Inhibitors of Cancer Stem Cells. [Related pubchem assays (depositor defined):AID2717, AID2721]; format: functional; conditions: Homo sapiens
[6] = HEK293T cell cytotoxicity, dose response, cytotoxicity control, CellTiter-Glo luminescence, dry powder, set 6 (AID 651949); format: functional, cell-based; conditions: HEK293
[7] = L. donovani amastigote growth inhibition, dose response, axenic amastigotes, plate reader, cherry pick (AID 651891); format: functional, cell-based; conditions: Leishmania donovani
[8] = Inhibition of T. cruzi Tulahuen strain amastigotes in L-6 muscle cells Measured in Cell-Based and Microorganism Combination System Using Plate Reader - 2138-03_Inhibitor_Dose_CherryPick_Activity.; format: functional; conditions: Rattus norvegicus, L6
[9] = intracellular Trypanosoma cruzi inhibitors in host cells – cell-based, plate reader, cherry-pick samples, set 3, dose response (AID 651818); format: functional;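 also: compounds incubated with infected cells for about four days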
[10] = T. b. rhodesiense proliferation inhibition, dose response, STIB900 strain, plate reader, cherry pick (AID 651893); format: functional, cell-based; conditions: Trypanosoma brucei
[11] = Inhibition of Plasmodium falciparum NF54 Measured in Cell-Based System Using Plate Reader - 2138-11_Inhibitor_Dose_CherryPick_Activity.; format: functional
[12] = cytotoxicity in L-6 rat myocytes, dose response, cytotoxicity control, cell-based, plate reader, cherry-pick (AID 651896); format: functional
Paired box protein Pax-8 = Paired box protein Pax-8 (Homo sapiens, UniProt Q06710); assay: inhibitors of PAX8-driven TPO luciferase reporter, dose response, RMG-I cells, cherry-pick (AID 687027); format: functional, cell-based;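 also: luciferase reporter driven by Pax8 target thyroperoxidase promoter measured by SteadyGlo luminescence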
[13] = cytotoxicity in OVCAR8 ovarian cancer cells, dose response, PAX8 project, cell-based, plate reader, dry powder samples (AID 743197); format: functional; conditions: OVCAR-8
[14] = A2780 ovarian cancer cell cytotoxicity, dose response, cytotoxicity control, plate reader, dry powder samples (AID 743046); format: functional, cell-based
[15] = IOSE-T80 ovarian epithelial cell cytotoxicity, dose response, cytotoxicity control for PAX8 inhibitor project, plate reader, dry powder samples (AID 743045); format: functional, cell-based
[16] = NIH:OVCAR-3 ovarian cancer cell cytotoxicity, dose response, PAX8 inhibitor project, plate reader, dry powder samples (AID 743044); format: functional, cell-based
[17] = inhibitors of CMV-promoter luciferase reporter, dose response, counter-screen for Pax8 inhibitor project, cell-based, HEK293, luminescence, dry powder (AID 743020); format: functional
[18] = non-specific cell cytotoxicity, dose response, cytotoxicity control for PAX8 inhibitor project, plate reader, dry powder samples (AID 743021); format: functional, cell-based
[19] = IGROV1 ovarian cancer cell cytotoxicity, dose response, PAX8 inhibitor project, plate reader, dry powder samples (AID 743043); format: functional, cell-based; conditions: IGROV-1
[20] = biological target: NAD-dependent protein deacylase sirtuin-5, mitochondrial (Homo sapiens, UniProt Q9NXA8); assay: SIRT5 deacylase inhibitors, dose response, biochemical, fluorescence imaging, cherry-pick, set 6 (AID 720597)
Kallikrein-7 = Kallikrein-7 (Homo sapiens, UniProt P49862); assay: Fluorescence Intensity-based biochemical primary high throughput dose response assay to identify activators of kallikrein-7 (K7) zymogen.
[21] = inhibitors of non-replicating M. tuberculosis, dose response, luciferase, dry powder (AID 651620); format: functional; conditions: Mycobacterium tuberculosis
[22] = inhibitors of non-replicating M. tuberculosis, dose response, luciferase, dry powder (AID 651619); format: functional; conditions: Mycobacterium tuberculosis
[23] = biological target: Botulinum neurotoxin type F (Clostridium botulinum, UniProt P30996); assay: High-throughput multiplex microsphere dose response for inhibitors of toxin protease, specifically Botulinum neurotoxin light chain F protease, compounds from Cherry Pick 02.; format: functional; conditions: read-out: EC50_MICROM
Lethal factor = Lethal factor (Bacillus anthracis, UniProt P15917); assay: High-throughput multiplex microsphere dose response for inhibitors of toxin protease, specifically Lethal Factor protease, compounds from Cherry Pick 02.; format: functional; conditions: read-out: EC50_MICROM
Lethal factor, sequence (P15917 whole entry): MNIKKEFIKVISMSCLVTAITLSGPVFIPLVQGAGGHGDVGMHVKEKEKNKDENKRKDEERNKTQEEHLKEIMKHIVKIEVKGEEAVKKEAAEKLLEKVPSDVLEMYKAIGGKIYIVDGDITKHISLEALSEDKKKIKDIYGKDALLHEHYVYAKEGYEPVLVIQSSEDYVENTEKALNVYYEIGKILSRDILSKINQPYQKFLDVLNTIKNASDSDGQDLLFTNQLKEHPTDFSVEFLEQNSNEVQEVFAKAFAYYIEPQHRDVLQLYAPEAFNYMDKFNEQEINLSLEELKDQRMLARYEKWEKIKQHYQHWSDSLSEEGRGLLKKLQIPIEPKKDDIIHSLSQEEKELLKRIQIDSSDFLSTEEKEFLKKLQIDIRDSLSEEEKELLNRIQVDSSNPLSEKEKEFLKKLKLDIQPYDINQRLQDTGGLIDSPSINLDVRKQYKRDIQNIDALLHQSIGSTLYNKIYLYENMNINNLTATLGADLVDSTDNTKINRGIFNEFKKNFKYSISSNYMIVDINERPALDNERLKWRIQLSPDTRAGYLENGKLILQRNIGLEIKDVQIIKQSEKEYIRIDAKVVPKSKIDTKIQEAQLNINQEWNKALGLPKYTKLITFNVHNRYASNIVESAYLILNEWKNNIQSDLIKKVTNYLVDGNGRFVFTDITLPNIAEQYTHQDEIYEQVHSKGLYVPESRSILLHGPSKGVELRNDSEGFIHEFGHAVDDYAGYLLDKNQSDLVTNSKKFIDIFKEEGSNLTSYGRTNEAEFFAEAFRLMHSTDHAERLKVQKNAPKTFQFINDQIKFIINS

Paired box protein Pax-8, sequence (Q06710 whole entry): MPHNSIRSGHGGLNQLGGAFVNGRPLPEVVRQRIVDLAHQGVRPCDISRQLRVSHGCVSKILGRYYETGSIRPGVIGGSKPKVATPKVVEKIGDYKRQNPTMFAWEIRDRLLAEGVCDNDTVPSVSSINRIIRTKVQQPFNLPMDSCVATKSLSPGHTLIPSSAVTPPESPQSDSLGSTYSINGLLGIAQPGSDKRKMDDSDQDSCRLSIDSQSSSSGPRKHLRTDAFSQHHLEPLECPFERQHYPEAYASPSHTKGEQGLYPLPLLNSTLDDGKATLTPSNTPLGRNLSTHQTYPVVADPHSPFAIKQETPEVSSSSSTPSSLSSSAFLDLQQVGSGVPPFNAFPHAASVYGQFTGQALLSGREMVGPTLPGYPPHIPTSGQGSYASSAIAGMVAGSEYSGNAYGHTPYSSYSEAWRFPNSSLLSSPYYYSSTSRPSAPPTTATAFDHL
Mu-type opioid receptor, sequence (P35372 whole entry): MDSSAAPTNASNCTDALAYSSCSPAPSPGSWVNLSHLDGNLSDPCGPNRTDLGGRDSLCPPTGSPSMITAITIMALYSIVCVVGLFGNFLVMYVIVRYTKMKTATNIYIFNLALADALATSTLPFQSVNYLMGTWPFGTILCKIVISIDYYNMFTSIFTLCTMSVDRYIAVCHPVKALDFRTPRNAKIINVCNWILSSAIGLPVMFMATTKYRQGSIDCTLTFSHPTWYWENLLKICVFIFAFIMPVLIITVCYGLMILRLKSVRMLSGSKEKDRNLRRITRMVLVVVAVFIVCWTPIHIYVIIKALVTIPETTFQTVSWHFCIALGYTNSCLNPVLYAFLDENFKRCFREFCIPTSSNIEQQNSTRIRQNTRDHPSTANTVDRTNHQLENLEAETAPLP
Botulinum neurotoxin type F, sequence (P30996 1-436 limits assumed): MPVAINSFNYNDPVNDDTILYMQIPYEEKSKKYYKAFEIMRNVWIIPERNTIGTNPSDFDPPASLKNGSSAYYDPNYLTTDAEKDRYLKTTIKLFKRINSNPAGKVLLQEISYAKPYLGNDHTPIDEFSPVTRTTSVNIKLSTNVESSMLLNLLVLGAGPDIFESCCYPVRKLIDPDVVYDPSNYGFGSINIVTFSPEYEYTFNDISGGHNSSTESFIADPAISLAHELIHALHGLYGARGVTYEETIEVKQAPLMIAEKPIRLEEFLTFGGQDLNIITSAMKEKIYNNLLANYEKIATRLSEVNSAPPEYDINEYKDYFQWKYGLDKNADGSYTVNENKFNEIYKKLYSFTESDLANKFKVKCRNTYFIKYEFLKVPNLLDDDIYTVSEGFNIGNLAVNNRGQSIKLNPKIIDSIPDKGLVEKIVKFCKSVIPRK
Kallikrein-7, sequence (P49862 whole entry): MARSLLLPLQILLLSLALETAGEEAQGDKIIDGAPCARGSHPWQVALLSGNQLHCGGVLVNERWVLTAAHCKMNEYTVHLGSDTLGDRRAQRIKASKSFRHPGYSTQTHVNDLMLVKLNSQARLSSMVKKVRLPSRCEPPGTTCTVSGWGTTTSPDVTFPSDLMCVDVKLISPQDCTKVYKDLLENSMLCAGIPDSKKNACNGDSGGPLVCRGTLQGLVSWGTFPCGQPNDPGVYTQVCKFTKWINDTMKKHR
5-hydroxytryptamine receptor 2A, sequence (P35363 whole entry): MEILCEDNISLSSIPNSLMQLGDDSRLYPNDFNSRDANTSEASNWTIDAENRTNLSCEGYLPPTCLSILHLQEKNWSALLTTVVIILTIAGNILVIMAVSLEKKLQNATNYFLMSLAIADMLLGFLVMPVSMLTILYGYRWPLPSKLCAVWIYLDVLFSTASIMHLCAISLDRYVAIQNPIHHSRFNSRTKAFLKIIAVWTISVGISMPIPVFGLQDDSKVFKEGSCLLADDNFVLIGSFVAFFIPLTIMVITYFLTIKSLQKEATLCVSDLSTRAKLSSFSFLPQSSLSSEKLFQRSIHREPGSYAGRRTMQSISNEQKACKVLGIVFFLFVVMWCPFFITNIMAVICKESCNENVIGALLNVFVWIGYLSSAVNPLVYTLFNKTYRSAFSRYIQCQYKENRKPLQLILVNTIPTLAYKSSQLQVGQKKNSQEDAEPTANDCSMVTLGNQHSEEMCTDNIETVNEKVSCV
NAD-dependent protein deacylase sirtuin-5, mitochondrial, sequence (Q9NXA8 whole entry): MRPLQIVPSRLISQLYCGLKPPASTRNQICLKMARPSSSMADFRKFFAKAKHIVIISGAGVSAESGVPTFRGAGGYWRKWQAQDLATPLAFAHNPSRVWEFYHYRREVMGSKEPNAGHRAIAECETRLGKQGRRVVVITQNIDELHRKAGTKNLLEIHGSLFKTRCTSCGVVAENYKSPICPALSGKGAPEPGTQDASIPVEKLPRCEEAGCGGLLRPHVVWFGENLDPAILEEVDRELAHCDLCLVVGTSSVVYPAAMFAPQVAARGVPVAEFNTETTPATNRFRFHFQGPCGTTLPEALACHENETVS

In the case of `FC(F)(F)c1cccc(CN2CCN(c3ncccn3)CC2)c1`, the EC50 (Mu-type opioid receptor) is reported as 92.4 µM (inactive) and the EC50 [1] is reported as 4.16 µM (active).

For `COc1ccc(-c2cc(-c3nc4ccccn4c3NCc3ccccc3)ccc2OC)cc1`, the AC50 (INS1) was 1.33 µM (active), the AC50 [2] was 1.69 µM (active) and the AC50 [3] was 3.12 µM (active). The AC50 [4] was 8.74 µM (active) and the AC50 [5] was 5.24 µM (active).

With `c1ccc(CSc2nnc(C3CCCC3)o2)cc1` the AC50 [6] was > 52 µM (inactive).

In the case of `COc1ccc(CN(C)C[C@H]2Oc3c(NC(=O)c4ccncc4)cccc3C(=O)N([C@H](C)CO)C[C@@H]2C)cc1`, the IC50 [7] is reported as > 100 µM (inactive), the IC50 [8] is reported as 7.39 µM (inactive) and the AC50 [9] is reported as 0.206 µM (active). For the same compound, the IC50 [10] was 20.2 µM (inactive), the IC50 [11] was 7.39 µM (inactive) and the IC50 [12] was > 100 µM (inactive).

For `C[C@H]1CCCCO[C@H](CN(C)C(=O)Nc2ccc(C(F)(F)F)cc2)[C@@H](C)CN([C@@H](C)CO)C(=O)c2cc(NC(=O)Nc3ccc(F)cc3)ccc2O1`, the AC50 (Paired box protein Pax-8) was 3.62 µM (active), the AC50 [13] was 23.7 µM (active) and the AC50 [14] was 52.4 µM (active). The AC50 [15] was 50.8 µM (active) and the AC50 [16] was 11.2 µM (active).

For `C[C@@H]1CN([C@H](C)CO)C(=O)c2cc(NS(=O)(=O)c3ccccc3)ccc2O[C@@H](C)CCCCO[C@@H]1CN(C)Cc1ccc(C(F)(F)F)cc1`, the AC50 (Paired box protein Pax-8) was 5.74 µM (active), the AC50 [17] was 65.4 µM (active) and the AC50 [18] was 49 µM (active). The AC50 [19] was 35.4 µM (active), the AC50 [13] was 39 µM (active) and the AC50 [14] was 34.8 µM (active). The AC50 [16] was 27.4 µM (active).

For `CCCNC(=O)N1[C@@H](CO)[C@H](c2ccccc2)C12CN(C(=O)CC1CC1)C2`, the AC50 [20] was 24.6 µM (active).

In the case of `COc1ccc2ccccc2c1C=NNC(=O)c1cc(-c2ccc(C)c(C)c2)[nH]n1`, the EC50 (Kallikrein-7) is reported as > 2.57 µM (active).

In the case of `c1ccc(Cn2cc(CSc3nnc(-c4ccccc4)o3)nn2)cc1`, the IC90 [21] is reported as 2 µM (active) and the IC90 [22] is reported as 2 µM (active).

With `O=C(COC(=O)c1cncc(Br)c1)NC12CC3CC(CC(C3)C1)C2` the EC50 [23] was > 20 µM (inactive) and the EC50 (Lethal factor) was 11.5 µM (active).
